# Reference: publication PMC11766267 (International Journal of Molecular Sciences, 2025)
# Values joined by “and” are separate entries in the source; they are usually repeats but may differ in a detail not shown here. Equal entries are not always repeated. Where two headings read alike, the source gives them in different places.
# Tests used:
# [1] = test system: HCT-116, MDA-MB-231, HeLa, and MCF-7; experiment: MTT cytotoxicity assay, ranges stated over several cell lines; type: cell-based; conditions: Homo sapiens, range over the compounds named
# Protocol: Subsequently, 100 µL of dimethyl sulfoxide was introduced to dissolve the insoluble formazan.
# [2] = target: T1, aromatase (CYP19A, EC 1.14.14.14) (Homo sapiens, UniProt P11511); experiment: biochemical; conditions: individual Data 1-3
# T1 construct: Microsomal samples were isolated from tissue using the Microsome Isolation Kit; tissue BioVision K983-100; host or cells: microsomes from an unnamed tissue
# T1 sequence (P11511 1-503): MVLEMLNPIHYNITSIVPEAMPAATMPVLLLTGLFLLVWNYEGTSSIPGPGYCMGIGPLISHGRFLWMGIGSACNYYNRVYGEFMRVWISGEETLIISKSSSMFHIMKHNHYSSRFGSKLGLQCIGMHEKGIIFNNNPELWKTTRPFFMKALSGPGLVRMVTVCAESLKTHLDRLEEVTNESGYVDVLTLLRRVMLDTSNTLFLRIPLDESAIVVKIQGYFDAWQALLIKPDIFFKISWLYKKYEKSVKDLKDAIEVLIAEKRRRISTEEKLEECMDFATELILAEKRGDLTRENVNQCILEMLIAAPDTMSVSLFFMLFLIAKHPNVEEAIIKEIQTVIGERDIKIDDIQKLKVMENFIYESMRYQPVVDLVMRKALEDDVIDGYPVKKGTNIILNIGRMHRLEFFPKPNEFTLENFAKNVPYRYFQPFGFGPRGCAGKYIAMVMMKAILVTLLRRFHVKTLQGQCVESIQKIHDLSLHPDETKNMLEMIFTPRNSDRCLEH
# Protocol: In vitro aromatase assay was performed using the BioVision Aromatase Activity Assay Kit (Catalog # K983-100; BioVision, Milpitas, CA, USA). Microsomal samples were isolated from tissue using the Microsome Isolation Kit (Cat. #K249; BioVision, Milpitas, CA, USA). A standard curve was established by diluting the Fluorescence Standard provided in the kit to create a 0.5 pmole/µL solution, followed by setting up a series of standards in a white 96-well plate, adjusting the total volume to 100 µL with aromatase assay buffer. For each reaction well, a 2X concentrated mix was prepared by adding 2–48 µL of the microsomal sample and 2 µL of the NADPH generating system, bringing the final volume to 50 µL with aromatase assay buffer. Background controls (no enzyme) and positive controls (with recombinant aromatase) were included. […] After a 10 min incubation at 37 °C, 30 µL of the substrate/NADP+ mixture was added to each well, and fluorescence was measured immediately in kinetic mode for 60 min at 37 °C. Finally, the change in fluorescence was calculated to determine the specific activity of aromatase using the formula provided in the kit protocol.
# MCF-7 = experiment: In vitro anti-estrogenic activity assay, MCF-7
# MCF-7a = experiment: In vitro anti-estrogenic activity assay, MCF-7a
# EGFR = EGFR (Homo sapiens, UniProt P00533); experiment: In vitro protein kinase inhibition assay (ELISA kit), EGFR
# HER2 = HER2 (Homo sapiens, UniProt P04626); experiment: In vitro protein kinase inhibition assay (ELISA kit), HER2
# CDK2 = CDK2 (Homo sapiens, UniProt P24941); experiment: In vitro protein kinase inhibition assay (ELISA kit), CDK2
# VEGFR-2 = VEGFR-2 (Homo sapiens, UniProt P35968); experiment: In vitro protein kinase inhibition assay (ELISA kit), VEGFR-2
# [3] = cell count relative to the control (17β-E2)
# Sequence of HER2 (P04626 23-1255): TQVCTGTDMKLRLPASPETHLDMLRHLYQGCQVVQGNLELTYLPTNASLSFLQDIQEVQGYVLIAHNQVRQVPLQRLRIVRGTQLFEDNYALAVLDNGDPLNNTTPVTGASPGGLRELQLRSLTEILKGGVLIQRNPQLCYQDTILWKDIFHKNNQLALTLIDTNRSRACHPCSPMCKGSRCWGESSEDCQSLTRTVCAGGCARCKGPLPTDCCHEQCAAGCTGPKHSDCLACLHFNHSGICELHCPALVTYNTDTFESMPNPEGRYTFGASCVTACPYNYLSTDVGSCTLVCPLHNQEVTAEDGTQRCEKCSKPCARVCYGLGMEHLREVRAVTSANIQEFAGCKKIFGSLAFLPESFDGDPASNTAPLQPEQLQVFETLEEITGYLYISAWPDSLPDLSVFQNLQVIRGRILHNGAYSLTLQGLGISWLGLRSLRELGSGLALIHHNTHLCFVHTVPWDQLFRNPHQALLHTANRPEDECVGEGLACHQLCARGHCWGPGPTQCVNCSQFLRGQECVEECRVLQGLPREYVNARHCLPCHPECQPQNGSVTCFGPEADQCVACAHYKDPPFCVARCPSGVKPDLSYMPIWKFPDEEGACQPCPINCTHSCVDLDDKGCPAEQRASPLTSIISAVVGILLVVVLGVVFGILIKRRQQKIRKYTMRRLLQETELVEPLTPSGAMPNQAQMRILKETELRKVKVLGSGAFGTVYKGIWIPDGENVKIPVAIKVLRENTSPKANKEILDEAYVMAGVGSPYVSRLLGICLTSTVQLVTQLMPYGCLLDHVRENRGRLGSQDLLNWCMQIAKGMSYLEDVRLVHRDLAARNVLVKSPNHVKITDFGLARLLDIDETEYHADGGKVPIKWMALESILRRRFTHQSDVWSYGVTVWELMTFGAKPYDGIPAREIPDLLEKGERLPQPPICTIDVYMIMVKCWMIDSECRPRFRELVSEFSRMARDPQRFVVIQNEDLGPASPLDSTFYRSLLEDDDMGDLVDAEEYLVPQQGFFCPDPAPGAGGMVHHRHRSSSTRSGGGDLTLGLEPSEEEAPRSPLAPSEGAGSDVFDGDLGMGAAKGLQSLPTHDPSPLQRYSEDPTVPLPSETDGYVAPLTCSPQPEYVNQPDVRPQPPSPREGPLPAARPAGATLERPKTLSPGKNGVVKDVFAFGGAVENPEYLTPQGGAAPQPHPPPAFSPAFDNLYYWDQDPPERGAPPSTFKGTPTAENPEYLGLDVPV
# Sequence of EGFR (P00533 25-1210): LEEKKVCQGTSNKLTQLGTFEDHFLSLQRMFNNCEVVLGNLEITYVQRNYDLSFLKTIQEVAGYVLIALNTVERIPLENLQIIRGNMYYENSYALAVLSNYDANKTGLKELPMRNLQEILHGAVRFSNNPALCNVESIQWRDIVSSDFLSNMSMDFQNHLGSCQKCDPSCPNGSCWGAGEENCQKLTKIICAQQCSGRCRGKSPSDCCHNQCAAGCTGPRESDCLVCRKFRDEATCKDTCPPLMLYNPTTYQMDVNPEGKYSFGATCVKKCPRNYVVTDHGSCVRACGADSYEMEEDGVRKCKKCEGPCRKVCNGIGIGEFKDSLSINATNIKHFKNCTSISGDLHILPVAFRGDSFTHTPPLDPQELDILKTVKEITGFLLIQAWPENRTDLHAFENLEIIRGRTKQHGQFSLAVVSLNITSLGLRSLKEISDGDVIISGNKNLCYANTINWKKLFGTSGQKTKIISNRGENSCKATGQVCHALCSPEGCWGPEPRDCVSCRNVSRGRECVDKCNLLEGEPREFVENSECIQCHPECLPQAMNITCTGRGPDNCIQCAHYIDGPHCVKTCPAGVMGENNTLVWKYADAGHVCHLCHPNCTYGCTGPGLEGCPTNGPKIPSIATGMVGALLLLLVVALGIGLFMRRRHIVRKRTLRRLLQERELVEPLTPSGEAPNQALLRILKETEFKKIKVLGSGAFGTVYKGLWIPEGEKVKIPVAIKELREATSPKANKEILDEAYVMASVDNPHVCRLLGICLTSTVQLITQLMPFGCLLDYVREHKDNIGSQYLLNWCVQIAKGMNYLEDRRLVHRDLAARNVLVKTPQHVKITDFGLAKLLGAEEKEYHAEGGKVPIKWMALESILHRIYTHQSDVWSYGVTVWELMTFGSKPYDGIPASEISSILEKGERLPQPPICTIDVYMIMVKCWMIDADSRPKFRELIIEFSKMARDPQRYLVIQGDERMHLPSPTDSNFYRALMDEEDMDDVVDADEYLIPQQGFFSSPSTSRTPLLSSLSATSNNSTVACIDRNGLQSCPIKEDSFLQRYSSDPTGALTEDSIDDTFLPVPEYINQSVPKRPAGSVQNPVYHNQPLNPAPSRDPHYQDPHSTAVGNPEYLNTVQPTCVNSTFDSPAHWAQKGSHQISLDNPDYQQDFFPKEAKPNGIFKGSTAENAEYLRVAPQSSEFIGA
# Sequence of VEGFR-2 (P35968 20-1356): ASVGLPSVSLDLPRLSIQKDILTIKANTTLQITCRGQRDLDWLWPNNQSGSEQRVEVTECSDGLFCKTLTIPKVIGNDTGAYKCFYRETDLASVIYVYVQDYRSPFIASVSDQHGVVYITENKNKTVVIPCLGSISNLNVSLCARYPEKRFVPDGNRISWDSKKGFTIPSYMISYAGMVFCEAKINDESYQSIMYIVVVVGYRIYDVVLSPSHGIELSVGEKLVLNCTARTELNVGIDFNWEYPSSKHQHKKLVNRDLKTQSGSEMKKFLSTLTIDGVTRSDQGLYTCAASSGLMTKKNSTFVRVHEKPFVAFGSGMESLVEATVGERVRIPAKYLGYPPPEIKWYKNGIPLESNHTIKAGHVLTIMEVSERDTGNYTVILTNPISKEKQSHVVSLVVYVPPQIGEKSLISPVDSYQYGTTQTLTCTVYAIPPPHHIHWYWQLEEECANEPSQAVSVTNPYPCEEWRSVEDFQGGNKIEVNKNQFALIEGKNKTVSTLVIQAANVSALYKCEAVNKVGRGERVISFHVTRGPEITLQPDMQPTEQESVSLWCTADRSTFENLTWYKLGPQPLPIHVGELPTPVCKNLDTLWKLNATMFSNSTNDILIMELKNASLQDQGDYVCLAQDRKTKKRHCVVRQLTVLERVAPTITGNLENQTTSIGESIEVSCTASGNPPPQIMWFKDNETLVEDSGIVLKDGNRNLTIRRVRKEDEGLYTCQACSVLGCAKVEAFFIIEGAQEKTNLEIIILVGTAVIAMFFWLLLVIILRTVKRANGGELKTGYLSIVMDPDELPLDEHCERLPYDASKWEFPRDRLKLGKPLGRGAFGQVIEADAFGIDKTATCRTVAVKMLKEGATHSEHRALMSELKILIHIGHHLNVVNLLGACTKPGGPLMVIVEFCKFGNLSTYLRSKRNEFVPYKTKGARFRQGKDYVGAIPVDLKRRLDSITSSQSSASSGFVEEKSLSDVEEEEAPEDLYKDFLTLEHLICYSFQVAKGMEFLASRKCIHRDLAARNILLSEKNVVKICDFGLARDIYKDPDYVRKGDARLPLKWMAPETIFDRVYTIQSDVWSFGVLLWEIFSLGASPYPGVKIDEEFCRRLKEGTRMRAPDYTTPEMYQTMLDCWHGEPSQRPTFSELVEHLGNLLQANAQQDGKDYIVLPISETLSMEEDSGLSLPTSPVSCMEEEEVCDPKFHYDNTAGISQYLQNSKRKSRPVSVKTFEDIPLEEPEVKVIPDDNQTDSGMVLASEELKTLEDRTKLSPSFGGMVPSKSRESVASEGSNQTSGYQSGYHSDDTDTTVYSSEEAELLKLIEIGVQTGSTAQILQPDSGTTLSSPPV
smiles,measurement,setting,value
"O=C(/C=C/c1ccccc1)c1ccccc1 [Compound 4a, (E)-Chalcone]",IC50,"[1]; HCT-116 and HeLa, read-out: IC50 values, range against HCT-116 and HeLa",6590 to 22600 nM
same,IC50,"[1]; MDA-MB-231 and MCF-7, read-out: IC50 values, range against MDA-MB-231 and MCF-7",2080 to 13600 nM
same,Inhibition (%) Aromatase,[2]; 0.01 µM,19.87% and 20.56%
same,Inhibition (%) Aromatase,[2]; 0.1 µM,28.65% and 29.76%
same,Inhibition (%) Aromatase,[2]; 1 µM,63% and 62.76%
same,Inhibition (%) Aromatase,[2]; 10 µM,82.87% and 83.45%
same,Inhibition (%) Aromatase,[2]; 100 µM,92.23% and 94%
same,inhibition at 0.01 µM,"[2]; read-out: Inhibition (%) Aromatase, 0.01 µM",20%
same,inhibition at 0.1 µM,"[2]; read-out: Inhibition (%) Aromatase, 0.1 µM",29%
same,inhibition at 1 µM,"[2]; read-out: Inhibition (%) Aromatase, 1 µM",64%
same,inhibition at 10 µM,"[2]; read-out: Inhibition (%) Aromatase, 10 µM",83%
same,inhibition at 100 µM,"[2]; read-out: Inhibition (%) Aromatase, 100 µM",93%
same,Cell Proliferation MCF-7 %,MCF-7; [3],79%
same,Cell Proliferation MCF-7 Cell Count,MCF-7; mean ± SD of triplicate,"14,553 ± 518"
same,Reduction of growth/cell count (inhibition) in MCF-7,MCF-7; relative to control,21%
same,Cell Proliferation MCF-7a %,MCF-7a; [3],102%
same,Cell Proliferation MCF-7a Cell Count,MCF-7a; mean ± SD of triplicate,"21,155 ± 611"
same,Inhibition in MCF-7a,MCF-7a; relative to control,no inhibition
same,IC50,EGFR,367 ± 12 nM
same,Inhibition (%) EGFR,"EGFR; 0.01 µM, individual Data 1-3",10.8% and 13.9%
same,Inhibition (%) EGFR,"EGFR; 0.1 µM, individual Data 1-3",34.2% and 37.1%
same,Inhibition (%) EGFR,"EGFR; 1 µM, individual Data 1-3",68.2% and 66.7%
same,Inhibition (%) EGFR,"EGFR; 10 µM, individual Data 1-3",83.2% and 86.9%
same,Inhibition (%) EGFR,"EGFR; 100 µM, individual Data 1-3",93.9% and 94.2%
same,inhibition at 0.01 µM,"EGFR; read-out: Inhibition (%) EGFR, 0.01 µM, individual Data 1-3",12.3%
same,inhibition at 0.1 µM,"EGFR; read-out: Inhibition (%) EGFR, 0.1 µM, individual Data 1-3",35.8%
same,inhibition at 1 µM,"EGFR; read-out: Inhibition (%) EGFR, 1 µM, individual Data 1-3",69.9%
same,inhibition at 10 µM,"EGFR; read-out: Inhibition (%) EGFR, 10 µM, individual Data 1-3",85.6%
same,inhibition at 100 µM,"EGFR; read-out: Inhibition (%) EGFR, 100 µM, individual Data 1-3",95.1%
same,IC50,HER2,691 ± 27 nM
same,Inhibition (%) Her2,"HER2; 0.01 µM, individual Data 1-3",10.6% and 14.2%
same,Inhibition (%) Her2,"HER2; 0.1 µM, individual Data 1-3",21.8% and 24.9%
same,Inhibition (%) Her2,"HER2; 1 µM, individual Data 1-3",60.9% and 59.5%
same,Inhibition (%) Her2,"HER2; 10 µM, individual Data 1-3",78% and 81.2%
same,Inhibition (%) Her2,"HER2; 100 µM, individual Data 1-3",89.9% and 93.1%
same,inhibition at 0.01 µM,"HER2; read-out: Inhibition (%) Her2, 0.01 µM, individual Data 1-3",12.3%
same,inhibition at 0.1 µM,"HER2; read-out: Inhibition (%) Her2, 0.1 µM, individual Data 1-3",23.8%
same,inhibition at 1 µM,"HER2; read-out: Inhibition (%) Her2, 1 µM, individual Data 1-3",62.2%
same,inhibition at 10 µM,"HER2; read-out: Inhibition (%) Her2, 10 µM, individual Data 1-3",79.1%
same,inhibition at 100 µM,"HER2; read-out: Inhibition (%) Her2, 100 µM, individual Data 1-3",91%
same,IC50,CDK2,840 ± 26 nM
same,Inhibition (%) CDK2,"CDK2; 0.01 µM, individual Data 1-3",9.7% and 12%
same,Inhibition (%) CDK2,"CDK2; 0.1 µM, individual Data 1-3",25.6% and 28.78%
same,Inhibition (%) CDK2,"CDK2; 1 µM, individual Data 1-3",53.8% and 52.78%
same,Inhibition (%) CDK2,"CDK2; 10 µM, individual Data 1-3",72.98% and 76%
same,Inhibition (%) CDK2,"CDK2; 100 µM, individual Data 1-3",88.7% and 92.7%
same,inhibition at 0.01 µM,"CDK2; read-out: Inhibition (%) CDK2, 0.01 µM, individual Data 1-3",11.8%
same,inhibition at 0.1 µM,"CDK2; read-out: Inhibition (%) CDK2, 0.1 µM, individual Data 1-3",27.7%
same,inhibition at 1 µM,"CDK2; read-out: Inhibition (%) CDK2, 1 µM, individual Data 1-3",54%
same,inhibition at 10 µM,"CDK2; read-out: Inhibition (%) CDK2, 10 µM, individual Data 1-3",74.1%
same,inhibition at 100 µM,"CDK2; read-out: Inhibition (%) CDK2, 100 µM, individual Data 1-3",90.3%
same,IC50,VEGFR-2,1550 ± 53 nM
same,Inhibition (%) VEGFR2,"VEGFR-2; 0.01 µM, individual Data 1-3",4.43% and 2.43% and 5.78%
same,Inhibition (%) VEGFR2,"VEGFR-2; 0.1 µM, individual Data 1-3",19.78% and 23.4%
same,Inhibition (%) VEGFR2,"VEGFR-2; 1 µM, individual Data 1-3",40.5% and 38.5%
same,Inhibition (%) VEGFR2,"VEGFR-2; 10 µM, individual Data 1-3",69% and 76.6%
same,Inhibition (%) VEGFR2,"VEGFR-2; 100 µM, individual Data 1-3",86.5% and 92.5%
same,inhibition at 0.1 µM,"VEGFR-2; read-out: Inhibition (%) VEGFR2, 0.1 µM, individual Data 1-3",21.6%
same,inhibition at 1 µM,"VEGFR-2; read-out: Inhibition (%) VEGFR2, 1 µM, individual Data 1-3",43.5%
same,inhibition at 10 µM,"VEGFR-2; read-out: Inhibition (%) VEGFR2, 10 µM, individual Data 1-3",73.3%
same,inhibition at 100 µM,"VEGFR-2; read-out: Inhibition (%) VEGFR2, 100 µM, individual Data 1-3",89.2%
